Test results: patent US20260001928A1 (CORTERIA PHARMACEUTICALS, priority 2022, published 2026)
*1 amine or outer side, *2 acyl side, *3 side chain or, on linkers, in order; H or OH if unused. Where a SMILES comes first, the peptide text is derived from it. Side-chain parts run from the residue outwards. [ ]: non-standard residue; d: D form. The star is where a group is joined. C18 diacid = O=C(O)CCCCCCCCCCCCCCCCC(=O)*; γGlu = O=C(O)[C@H](CCC(=O)[*:2])N[*:1]; NMeI = CC[C@H](C)[C@H](NC)C(=O)O; AEEA = NCCOCCOCC(=O)O; Aib = CC(C)(N)C(=O)O

Molecular target: T1, CFR1R receptor (Homo sapiens, UniProt P34998)
T1 construct: host or cells: CHO-K1 (clone 2)
T1 sequence (P34998 24-415): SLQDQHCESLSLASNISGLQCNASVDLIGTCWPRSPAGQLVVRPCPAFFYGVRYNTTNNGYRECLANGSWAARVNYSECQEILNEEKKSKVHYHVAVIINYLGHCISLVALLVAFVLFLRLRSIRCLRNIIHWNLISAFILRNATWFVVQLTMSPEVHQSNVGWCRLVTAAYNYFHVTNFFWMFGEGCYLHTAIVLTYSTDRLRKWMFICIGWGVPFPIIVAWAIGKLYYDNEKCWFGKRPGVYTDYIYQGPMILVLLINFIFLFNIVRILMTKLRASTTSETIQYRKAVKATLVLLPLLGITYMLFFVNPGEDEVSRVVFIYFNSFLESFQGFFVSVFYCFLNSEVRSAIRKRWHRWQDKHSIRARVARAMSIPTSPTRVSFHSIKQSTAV
Assay: Activity at anti-target CFR1R receptor, cAMP assay in CRF1R-overexpression CHO-K1 cells
Assay type: cell-based
Conditions: 100% = Sauvagine at 100 nM
Procedure: Assessment of activity at anti-target CFR1R receptor is done using the same procedure as the one described for the TeloHEAC cell line. The CRF1R-overexpression CHO-K1 cell line clone 2 was purchased from PerkinElmer. Cells were grown in a 10 cm dish at 37° C./5% CO2 in medium (F12 (Hams)/10% FBS/400 μg/ml G418) to near confluence. At that stage, cells were harvested, resuspended to 10 million/mL in culture medium without G418 and with 10% DMSO. 1 mL vial aliquots were slowly frozen to −80° C. in isopropanol and then transferred in liquid nitrogen for storage. These vials were used to run the experiment following the procedure reported in the previous paragraph, except for the compound used in the control well to define the 100% activation (Sauvagine at 100 nM) and the cell density (final cell density: 4000 cells/well)

SMILES | Emax (% I)
CC[C@H](C)[C@H](NC(C)=O)C(=O)N[C@H](C(=O)N[C@@H](CC(C)C)C(=O)N[C@@H](CO)C(=O)N[C@@H](CC(C)C)C(=O)N[C@@H](CC(=O)O)C(=O)N[C@H](C(=O)N1CCC[C@H]1C(=O)N[C@H](C(=O)N[C@@H](CCCCN)C(=O)N[C@@H](CC(C)C)C(=O)N[C@@H](CCCCNC(=O)COCCOCCNC(=O)COCCOCCNC(=O)CC[C@H](NC(=O)CC[C@H](NC(=O)CCCCCCCCCCCCCCCCC(=O)O)C(=O)O)C(=O)O)C(=O)N[C@@H](CCC(N)=O)C(=O)NC(C)(C)C(=O)N[C@@H](CC(C)C)C(=O)N[C@@H](CC(C)C)C(=O)N[C@@H](CCCCN)C(=O)N[C@@H](CCC(N)=O)C(=O)N[C@@H](CCC(=O)O)C(=O)N[C@@H](CCCNC(=N)N)C(=O)N[C@@H](CCC(N)=O)C(=O)N[C@@H](CCCCN)C(=O)N[C@@H](CCCCN)C(=O)N[C@@H](CCC(N)=O)C(=O)N[C@@H](CCCNC(=N)N)C(=O)N[C@@H](CCC(=O)O)C(=O)N[C@@H](CCC(N)=O)C(=O)N[C@@H](C)C(=O)N[C@@H](CCC(=O)O)C(=O)N[C@@H](CCCCN)C(=O)N[C@@H](CC(N)=O)C(=O)NC(C)(C)C(=O)N[C@@H](CCC(N)=O)C(=O)N[C@H](C(=O)N[C@@H](CC(C)C)C(=O)N[C@@H](CCC(=O)O)C(=O)N[C@@H](CCC(N)=O)C(=O)N[C@H](C(N)=O)C(C)C)[C@@H](C)CC)[C@@H](C)CC)C(C)C)C(C)C [compound 26] (Ac-IVLSLDVPIKLK([AEEA-AEEA-γGlu-γGlu-C18 diacid])Q[Aib]LLKQERQKKQREQAEKN[Aib]QILEQV-NH2) | 1
CC[C@H](C)[C@H](NC)C(=O)N[C@H](C(=O)N[C@@H](CC(C)C)C(=O)N[C@@H](CO)C(=O)N[C@@H](CC(C)C)C(=O)N[C@@H](CC(=O)O)C(=O)N[C@@H](C(=O)N1CCC[C@H]1C(=O)N[C@H](C(=O)N[C@@H](CCCCN)C(=O)N[C@@H](CC(C)C)C(=O)N[C@@H](CCCCNC(=O)COCCOCCNC(=O)COCCOCCNC(=O)CC[C@H](NC(=O)CC[C@H](NC(=O)CCCCCCCCCCCCCCCCC(=O)O)C(=O)O)C(=O)O)C(=O)N[C@@H](CCC(N)=O)C(=O)NC(C)(C)C(=O)N[C@@H](CC(C)C)C(=O)N[C@@H](CC(C)C)C(=O)N[C@@H](CCCCN)C(=O)N[C@@H](CCC(N)=O)C(=O)N[C@@H](CCC(=O)O)C(=O)N[C@@H](CCCNC(=N)N)C(=O)N[C@@H](CCC(N)=O)C(=O)N[C@@H](CCCCN)C(=O)N[C@@H](CCCCN)C(=O)N[C@@H](CCC(N)=O)C(=O)N[C@@H](CCCNC(=N)N)C(=O)N[C@@H](CCC(=O)O)C(=O)N[C@@H](CCC(N)=O)C(=O)N[C@@H](C)C(=O)N[C@@H](CCC(=O)O)C(=O)N[C@@H](CCCCN)C(=O)N[C@@H](CC(N)=O)C(=O)N[C@H](C(=O)N[C@@H](CCC(N)=O)C(=O)N[C@H](C(=O)N[C@@H](CC(C)C)C(=O)N[C@@H](CCC(=O)O)C(=O)N[C@@H](CCC(N)=O)C(=O)N[C@H](C(N)=O)C(C)C)[C@@H](C)CC)C(C)C)[C@@H](C)CC)C(C)C)C(C)C [compound 28] (H-[NMeI]VLSLD[dV]PIKLK([AEEA-AEEA-γGlu-γGlu-C18 diacid])Q[Aib]LLKQERQKKQREQAEKNVQILEQV-NH2) | 6
